Test results taken from patent publication US20040157240A1, “Diagnostic assay and related products” (The Brigham & Women's Hospital, Inc., priority 2002, published 2004).

How the values were obtained:
[1] = ACRN (SOCS/SLIC) 6-week run-in period on inhaled triamcinolone, change in FEV1; assay type: in vivo, human; details: on inhaled corticosteroids, evaluated at 6 weeks; mean ± standard deviation; N 336
Text: Two completed trials conducted by the ACRN (Asthma Clinical Research Network), the salmeterol or corticosteroids (SOCS) (54) and salmeterol±inhaled corticosteroids (SLIC)
Details regarding the entry criteria, run-in period and randomization have been published with the primary trial results (54, 55). Of the 339 subjects eligible for randomization, 336 had DNA available; 66.7% of these were Caucasian, forming the basis of the second replication sample.
(§1) The primary outcome measure of the association analyses was percent change in FEV1 over time in response to inhaled steroids, defined as the FEV1 difference from baseline to eight weeks for the Adult Study and CAMP, and to six weeks in ACRN, divided by the baseline value.

[2] = CAMP (Childhood Asthma Management Program): clinical trial of inhaled budesonide vs. nedocromil vs. placebo, change in FEV1; assay type: in vivo, human
Text: The Childhood Asthma Management Program (CAMP) was a randomized, double-masked, long term clinical trial testing the safety and efficacy of inhaled budesonide vs. nedocromil vs. placebo (27). The mean duration of follow-up was 4 years (28). 311 children (males and females for a variety of race and age groups) were randomized to the steroid group, with a mean improvement of 6.8% in their FEV1 at one year. Of these, 65% were Caucasian. These formed the basis for our replication sample.
CAMP is a multicenter, randomized, double-blinded clinical trial testing the safety and efficacy of inhaled budesonide vs. nedocromil vs. placebo over a mean of 4.3 years. Trial design and methodology have been published (27, 28). The replication sample subjects were the Caucasian CAMP children randomized to the steroid group, evaluated at their 2 month follow-up visit.
as §1

[3] = system: β2-adrenergic receptor gene; details: cited from earlier work
[4] = Adult Study (Forest study): 8-week clinical trial of inhaled flunisolide vs. standard inhaled corticosteroid therapy, change in FEV1; assay type: in vivo, human; details: on inhaled corticosteroids, evaluated at 8 weeks; mean ± standard deviation; N 470
Text: The Forest study (also known as the Adult Study) was an 8 week clinical trial used to compare the effect of once daily high dose inhaled flunisolide vs. “standard inhaled corticosteroid therapy” (performed by Forest Pharmaceuticals). […] Of these participants, 7% were African American, 3% were Hispanic and 2% were other. As 88% of these participants were Caucasian, analyses focus on this group. Additionally, females accounted for 58.5% of the participants.
The Adult Study was a multicenter 8-week randomized clinical trial comparing the effect of once-daily high-dose inhaled flunisolide vs. standard inhaled corticosteroid therapy. Inclusion criteria were a history of asthma, >12% improvement in FEV1 with albuterol and using inhaled steroids at randomization. Exclusion criteria were non-asthma pulmonary disease, smoking (≧10 pack-years) and recent asthma exacerbations requiring systemic steroids. Subjects were phoned weekly and had spirometry at 4 and 8 weeks.

C[C@]12C=CC(=O)C=C1CC[C@H]1[C@@H]3C[C@@H](O)[C@](O)(C(=O)CO)[C@@]3(C)C[C@H](O)[C@@]12F [Triamcinolone]
Mean Change in FEV1 [1]: 6.7 ± 19.7%

CCCC1O[C@@H]2C[C@H]3[C@@H]4CCC5=CC(=O)C=C[C@]5(C)[C@H]4[C@@H](O)C[C@]3(C)[C@]2(C(=O)CO)O1 (stereo partly drawn) [Budesonide]
mean improvement in FEV1 ([2]; at one year, 311 children randomized to the steroid group): 6.8%
Mean Change in FEV1 ([2]; on inhaled corticosteroids, evaluated at 8 weeks, mean ± standard deviation, N 311): 8.3 ± 14.1%

CC(C)(C)NCC(O)c1ccc(O)c(CO)c1 (stereo not drawn) [albuterol]
acute bronchodilator response ([3]; Arg/Arg children than Gly/Gly children): more likely
peak expiratory flow rates ([3]; regular utilization, Arg/Arg at position 16, compared to Arg/Arg receiving prn and Gly/Gly): significantly decrease

CC1(C)O[C@@H]2C[C@H]3[C@@H]4C[C@H](F)C5=CC(=O)C=C[C@]5(C)[C@H]4[C@@H](O)C[C@]3(C)[C@]2(C(=O)CO)O1 [Flunisolide]
Mean Change in FEV1 [4]: 7.0 ± 19.3%
